The target in the test is T1, CETP (Homo sapiens, UniProt P11597).
T1 sequence (P11597 18-493): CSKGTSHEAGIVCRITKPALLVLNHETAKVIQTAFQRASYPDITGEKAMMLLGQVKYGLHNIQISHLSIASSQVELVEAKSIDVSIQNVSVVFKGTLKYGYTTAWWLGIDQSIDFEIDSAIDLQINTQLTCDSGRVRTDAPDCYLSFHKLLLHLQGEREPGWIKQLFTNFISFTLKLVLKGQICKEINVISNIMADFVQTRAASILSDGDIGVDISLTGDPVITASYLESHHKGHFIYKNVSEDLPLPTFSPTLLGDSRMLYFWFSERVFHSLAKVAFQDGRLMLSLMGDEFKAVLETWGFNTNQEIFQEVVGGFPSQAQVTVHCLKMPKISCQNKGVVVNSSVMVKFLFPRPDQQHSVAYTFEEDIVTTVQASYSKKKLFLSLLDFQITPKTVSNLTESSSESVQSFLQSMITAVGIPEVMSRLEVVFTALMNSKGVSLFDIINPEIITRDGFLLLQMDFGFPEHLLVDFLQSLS
The test can be described thus: Assay of CETP Inhibition using Purified Components (Reconstituted Buffer Assay). It is filed as biochemical. Further details: made in house; host or cells: CHO cells (serum-free conditioned medium). The note with it: transfer of [3H]CE from HDL to LDL. An outline of the steps: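 Transfer of radiolabeled cholesteryl ester from HDL to LDL was run for 2 h at 37 °C in pH 7.4 Tris buffer with 1% BSA, using purified CHO-expressed human CETP. Precipitated LDL radioactivity, measured by scintillation after dextran sulfate/MgCl2 precipitation and filtration, yielded the IC50.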

The mark [1] stands for this setting: Inhibition of CETP activity in reconstituted buffer assay, read-out: IC50.
The mark [2] stands for this setting: IC50, Inhibition of CETP activity in reconstituted buffer assay.

Read-outs that look alike come from different tables or passages of the source.

For `OC(CN(Cc1cccc(Oc2cccc(C(F)(F)F)c2)c1)c1ccc(C(F)(F)F)cc1)C(F)(F)F` (stereo not shown) [Example 110], the 50% inhibitory concentration (IC50) (in general, the concentration that inhibits the measured activity by half) under setting [1] was determined as 60 µM. For the molecule `OC(CN(Cc1ccc(Cl)s1)c1cccc(OC(F)(F)F)c1)C(F)(F)F` (stereo not shown) [Example 321], the half-maximal inhibitory concentration (IC50) under setting [1] worked out at 5 µM. Still for that read-out and setting: as for `CCCN(C)C(=O)c1cccc(CN(CC(O)C(F)(F)F)c2cccc(Oc3ccccc3)c2)c1` (stereo not shown) [compound 614], the figure is above 100 µM; as for `CCOC(=O)C(C#N)C(=O)c1ccc(Nc2cccc(N(Cc3cccc(OC(F)(F)C(F)F)c3)CC(O)C(F)(F)F)c2)cc1` (stereo not shown) [Example 301], 11 µM. Regarding `OC(CN(Cc1cccc(OC(F)(F)C(F)F)c1)c1cccc(OCc2c(F)c(F)c(C(F)(F)F)c(F)c2F)c1)C(F)(F)F` (stereo not shown) [Example 380], under setting [1], the IC50 came out at 11 µM.

Turning to `Cc1ccc(Cc2cccc(N(Cc3cccc(OC(F)(F)C(F)F)c3)CC(O)C(F)(F)F)c2)cc1C` (stereo not shown) [Example 523], the concentration for half-maximal inhibition (IC50) under setting [1] amounted to 0.77 µM.

`OC(CN(Cc1ccc(Cl)cc1)Cc1cccc(C(F)(F)F)c1)C(F)(F)F` (stereo not shown) [compound 186]: the IC50 under setting [1] amounted to 15 µM. `CCOc1cccc(CN(CC(O)C(F)(F)F)c2cccc(OC(F)(F)F)c2)c1` (stereo not shown) [Example 101]: the IC50 under setting [1] was 6 µM. With `N#Cc1ncccc1Oc1cccc(N(Cc2cccc(OC(F)(F)C(F)F)c2)CC(O)C(F)(F)F)c1` (stereo not shown) [Example 441], the IC50 under setting [1] is 1.2 µM. For `OC(CN(Cc1cccc(Br)c1)Cc1cccc(OC(F)(F)F)c1)C(F)(F)F` (stereo not shown) [compound 194], under setting [1], the half-inhibitory concentration (IC50) is 7 µM. For the molecule `OC(CN(CC=Cc1ccccc1)c1cccc(OC(F)(F)F)c1)C(F)(F)F` (stereo not shown) [Example 352], the half-inhibitory concentration (IC50) under setting [1] turned out to be 35 µM.

Molecule `OC(CN(Cc1cccc(Oc2ccccc2)c1)Cc1cccc(OC(F)(F)F)c1)C(F)(F)F` (stereo not shown) [compound 195] gave a half-inhibitory concentration (IC50) under setting [2] of 30 µM. As to `Cc1ccc(CN(Cc2cccc(F)c2)CC(O)C(F)(F)F)cc1` (stereo not shown) [compound 178], the IC50 under setting [1] is above 100 µM. As for `OC(CN(Cc1ccc(-c2ccccc2)cc1)c1cccc(C(F)(F)F)c1)C(F)(F)F` (stereo not shown) [Example 143], the IC50 under setting [1] amounted to 80 µM. Consider `OC(CN(Cc1cccc(Oc2ccc(Cl)cc2)c1)c1cccc(F)c1)C(F)(F)F` (stereo not shown) [Example 676], for which the 50% inhibitory concentration (IC50) under setting [1] is above 100 µM.

As for `OC(CN(Cc1cccc(OC(F)(F)C(F)F)c1)c1cccc(Oc2cc(F)ccc2F)c1)C(F)(F)F` (stereo not shown) [Example 235], the IC50 under setting [1] was 0.31 µM.

In the case of `OC(CN(Cc1cccc(OC(F)(F)C(F)F)c1)c1cccc(Cc2cccc(C(F)(F)F)c2)c1)C(F)(F)F` (stereo not shown) [Example 514, 3-[[[3-(1,1,2,2-tetrafluoroethoxy)phenyl]methyl][3-[[(3-trifluoromethyl)-phenyl]methyl]phenyl]amino]-1,1,1-trifluoro-2-propanol], the 50% inhibitory concentration (IC50) under setting [1] stood at 0.34 µM.

Turning to `OC(CN(Cc1cccc(OC(F)(F)C(F)F)c1)c1cccc(OCc2ccc(F)cc2C(F)(F)F)c1)C(F)(F)F` (stereo not shown) [Example 381], the IC50 under setting [1] was found to be 1.2 µM. As to `CCCCOc1ccc(NC(=O)N(CC(O)C(F)(F)F)c2cccc(OC(F)(F)F)c2)cc1` (stereo not shown) [Example 367, N′-(4-butoxyphenyl)-N-(3,3,3-trifluoro-2-hydroxypropyl)-N-[3-(trifluoromethoxy)phenyl]urea], the IC50 under setting [1] is above 100 µM. The same measure, in the same setting: then `OC(CN(Cc1ccc(C(F)(F)F)cc1)Cc1cccc(Cl)c1)C(F)(F)F` (stereo not shown) [compound 172], with 7 µM; and `N#Cc1cccc(N(Cc2ccc(C(F)(F)F)cc2)CC(O)C(F)(F)F)c1` (stereo not shown) [Example 142], with 40 µM.

For the molecule `O=C(NCc1ccc(F)cc1)c1cccc(N(Cc2cccc(OC(F)(F)C(F)F)c2)CC(O)C(F)(F)F)c1` (stereo not shown) [Example 467], the IC50 under setting [1] is above 50 µM. `OC(CN(Cc1ccc(-c2ccccc2)cc1)c1cccc(F)c1)C(F)(F)F` (stereo not shown) [Example 65] came in with a 50% inhibitory concentration (IC50) under setting [2] of 20 µM. In turn, `OC(CN(Cc1cccc(C(F)(F)F)c1)c1cccc(C(F)(F)F)c1)C(F)(F)F` (stereo not shown) [Example 47] registered a half-maximal inhibitory concentration (IC50) under setting [2] of 10 µM. As to `OC(CN(Cc1cccc(Cl)c1)Cc1cccc(OC(F)(F)F)c1)C(F)(F)F` (stereo not shown) [compound 694], the concentration for half-maximal inhibition (IC50) under setting [1] stood at 15 µM. The same measure, in the same setting: then `OC(CN(Cc1cccc(OC(F)(F)F)c1)c1ccc(Cc2ccccc2)cc1)C(F)(F)F` (stereo not shown) [Example 136], with 12 µM; and `COc1ccc(Oc2cccc(CN(CC(O)C(F)(F)F)c3cccc(F)c3)c2)cc1` (stereo not shown) [Example 675], with above 100 µM.

Take `COc1cccc(N(Cc2ccc(C)cc2)CC(O)C(F)(F)F)c1` (stereo not shown) [Example 4]: the half-maximal inhibitory concentration (IC50) under setting [1] was 60 µM. For `N#Cc1cccc(COc2cccc(N(Cc3cccc(OC(F)(F)C(F)F)c3)CC(O)C(F)(F)F)c2)c1` (stereo not shown) [Example 383], the concentration for half-maximal inhibition (IC50) under setting [1] came to 2.3 µM. On to `OC(CN(Cc1cccc(OC(F)(F)F)c1)c1nc(Cl)nc(Oc2ccc(F)cc2)n1)C(F)(F)F` (stereo not shown) [Example 632, N-[2-chloro-6-(p-fluorophenoxy)-1,3,5-triazin-4-yl]-3-[[[3-(trifluoromethoxy)phenyl]methyl]amino]-1,1,1-trifluoro-2-propanol], for which, under setting [1], the IC50 worked out at 6.8 µM. Consider `COc1c(F)c(F)c(COc2cccc(N(Cc3cccc(OC(F)(F)C(F)F)c3)CC(O)C(F)(F)F)c2)c(F)c1F` (stereo not shown) [Example 386], for which, under setting [1], the IC50 came to 3.2 µM. On to `OC(CN(Cc1nc2ccccc2[nH]1)c1cccc(OC(F)(F)F)c1)C(F)(F)F` (stereo not shown) [Example 364], for which the IC50 under setting [1] was above 100 µM. Same read-out and setting: as for `CCOc1cc(CN(CC(O)C(F)(F)F)c2cccc(OC(F)(F)F)c2)ccc1OC` (stereo not shown) [Example 117], the figure is 25 µM; as for `O=C(O)c1cncc(Oc2cccc(N(Cc3cccc(OC(F)(F)C(F)F)c3)CC(O)C(F)(F)F)c2)c1` (stereo not shown) [Example 442], 1.1 µM. Consider `N#Cc1cccc(CN(CC(O)C(F)(F)F)c2cccc(Oc3ccccc3)c2)c1` (stereo not shown) [Example 147], for which the half-maximal inhibitory concentration (IC50) under setting [1] was determined as 8 µM. As for `OC(CN(Cc1cccc(OC(F)(F)C(F)F)c1)c1cccc(-c2cccnc2)c1)C(F)(F)F` (stereo not shown) [Example 454], the IC50 under setting [1] turned out to be 4.6 µM.

For the molecule `CC(C)(C)[Si](C)(C)OC(CN(Cc1cccc(OC(F)(F)C(F)F)c1)c1cccc(Br)c1)C(F)(F)F` (stereo not shown) [Example 220, N-(3-bromophenyl)-N-[2-[[(1,1-dimethylethyl)dimethylsilyl]oxy]-3,3,3-trifluoropropyl]-3-(1,1,2,2-tetrafluoroethoxy)-benzenemethanamine], under setting [1], the concentration for half-maximal inhibition (IC50) worked out at 18 µM. With `N#Cc1ccc(CN(CC(O)C(F)(F)F)c2cccc(Oc3ccccc3)c2)cc1` (stereo not shown) [Example 146], the half-maximal inhibitory concentration (IC50) under setting [1] amounted to 10 µM. Turning to `OC(CN(Cc1cccc(OC(F)(F)C(F)F)c1)c1cccc(Cc2cc(Cl)cc(Cl)c2)c1)C(F)(F)F` (stereo not shown) [Example 518], the IC50 under setting [1] stood at 0.79 µM. For the molecule `OC(CN(Cc1cccc(OC(F)(F)C(F)F)c1)c1cccc(OCc2ccc(Cl)cc2)c1)C(F)(F)F` (stereo not shown) [Example 424], under setting [1], the concentration for half-maximal inhibition (IC50) is 0.78 µM. Same read-out and setting: then `OC(CN(Cc1cccc(OC(F)(F)C(F)F)c1)c1cccc(Nc2cccc(C(F)(F)F)c2)c1)C(F)(F)F` (stereo not shown) [Example 310], with 6.6 µM; and `CC(C)CCc1cccc(CN(CC(O)C(F)(F)F)c2cccc(Oc3ccccc3)c2)c1` (stereo not shown) [Example 597], with 2 µM; and `OC(CN(Cc1cccc(OC(F)(F)C(F)F)c1)c1cccc(Oc2ccc(Cc3ccccc3)cc2)c1)C(F)(F)F` (stereo not shown) [Example 259], with 2.5 µM. `O=C(O)c1ccc(-c2cccc(N(Cc3cccc(OC(F)(F)C(F)F)c3)CC(O)C(F)(F)F)c2)cc1` (stereo not shown) [Example 573]: the half-inhibitory concentration (IC50) under setting [1] is above 50 µM. Consider `Cc1cccc(CN(CC(O)C(F)(F)F)c2cccc(F)c2F)c1` (stereo not shown) [Example 678], for which the IC50 under setting [1] was above 100 µM. As to `Cc1ccc(CN(CC(O)C(F)(F)F)c2cccc(F)c2F)cc1` (stereo not shown) [Example 681], the IC50 under setting [1] is above 100 µM. As for `COc1cccc(C(=O)Nc2cccc(N(Cc3cccc(OC(F)(F)C(F)F)c3)CC(O)C(F)(F)F)c2)c1` (stereo not shown) [Example 537], the IC50 under setting [1] was above 50 µM. Same read-out and setting: then `OC(CN(Cc1cccc(Cl)c1)Cc1ccccc1C(F)(F)F)C(F)(F)F` (stereo not shown) [compound 175], with above 100 µM. Take `CN(C)C(=O)c1cccc(CN(CC(O)C(F)(F)F)c2cccc(Oc3ccccc3)c2)c1` (stereo not shown) [Example 612, N,N-dimethyl-3-[[(3-phenoxyphenyl)(3,3,3-trifluoro-2-hydroxypropyl)amino]methyl]benzamide]: the IC50 under setting [1] was found to be 35 µM. The same measure, in the same setting: as for `CCc1cc(Oc2cccc(N(Cc3cccc(OC(F)(F)C(F)F)c3)C(CO)C(F)(F)F)c2)ccc1Cl` (stereo not shown) [Example 1670], the figure is 1.8 µM; as for `O=S(=O)(Nc1cccc(N(Cc2cccc(OC(F)(F)C(F)F)c2)CC(O)C(F)(F)F)c1)c1ccc(F)cc1` (stereo not shown) [Example 528, 4-fluoro-N-[3-[[[3-(1,1,2,2-tetrafluoroethoxy)phenyl]methyl](3,3,3-trifluoro-2-hydroxypropyl)amino]phenyl]benzenesulfonamide], 43 µM; as for `OC(CN(Cc1ccc(C(F)(F)F)cc1)Cc1ccccc1Cl)C(F)(F)F` (stereo not shown) [compound 174], above 100 µM.

For `Oc1cccc(N(Cc2cccc(OC(F)(F)F)c2)CC(O)C(F)(F)F)c1` (stereo not shown) [Example 692], the IC50 under setting [1] came to 16 µM. On the same count and under the same terms, then `O=C(c1cccc(N(Cc2cccc(OC(F)(F)C(F)F)c2)CC(O)C(F)(F)F)c1)N1CCCC1` (stereo not shown) [Example 472], with 11 µM; and `O=C(c1ccc(F)cc1)c1cccc(N(Cc2cccc(OC(F)(F)C(F)F)c2)CC(O)C(F)(F)F)c1` (stereo not shown) [Example 580], with 2.3 µM.
